Reference: publication PMC6154694, “Absorption, Metabolic Stability, and Pharmacokinetics of Ginger Phytochemicals” (Molecules : A Journal of Synthetic Chemistry and Natural …, 2017)

Tests used:
[1] = Liver microsomal stability, human; type: in vitro ADME; conditions: protein 0.5 mg/mL
Experimental: Pooled liver microsomes from CD1 mouse, IGS Sprague-Dawley rat, Beagle dog, and mixed gender human were used for assays. Incubations (1 mL) consisted of liver microsomes (0.5 mg/mL), NADPH (1 mM) and 100 mM sodium phosphate buffer (pH 7.4). Following pre-incubation (10 min, 37 °C), reactions were initiated by spiking ACN/DMSO (80:20) stock solutions of GE phenolics (5 μL, 10 μM). Samples (100 μL) were withdrawn at 0, 5, 10, 15, 20 and 30 min and quenched with 200 μL acetonitrile containing internal standard. Concomitant NADPH-free control incubations were prepared similarly.

[2] = Mouse pharmacokinetic study of oral GE with and without ketoconazole, plasma with and without β-glucuronidase treatment; type: in vivo, male mice (C57BL6J); conditions: for Concentration Ratio (Total/Free) of GE Phenolics: GE administered group; for Concentration Ratio (Total/Free) of GE Phenolics / concentration at 0 h / concentration at 0.087 h / concentration at 0.167 h / concentration at 0.25 h / concentration at 0.5 h / concentration at 1 h / concentration at 2 h / concentration at 3 h / concentration at 4 h / concentration at 6 h / concentration at 8 h / concentration at 12 h: mouse plasma; for concentration at 0 h / concentration at 0.087 h / concentration at 0.167 h / concentration at 0.25 h / concentration at 0.5 h / concentration at 1 h / concentration at 2 h / concentration at 3 h / concentration at 4 h / concentration at 6 h / concentration at 8 h / concentration at 12 h: −βgd
Experimental: A solution formulation of GE was prepared by using 5% ethanol, 5% Tween 80, 40% polyethylene glycol, and 50% corn oil. The dose volume was 10 mL/kg and the dose administered was 250 mg/kg GE.
Pharmacokinetic study in male mice (C57BL6J, Harlan Laboratories, Indianapolis, IN, USA) was run with 36 animals in each group at a GE dose of 250 mg/kg with a dose volume of 10 mL/kg. One group was given GE alone and in the second group GE was co-administered with KTZ (50 mg/kg). A terminal sampling design was used to collect blood samples at 0 (pre-dose), 0.08, 0.16, 0.25, 0.5, 1, 2, 3, 4, 6, 8, and 12 h. At each time, 1 mL of blood was collected in ethylenediaminetetraacetic acid di-potassium salt (K2EDTA) tubes (BD Biosciences, Franklin Lakes, NJ, USA). Plasma was separated by centrifugation of samples at 4000 rpm for 10 min and stored below −60 °C till bioanalysis. All experiments were performed with approval from the Institutional Animal Care and Use Committee (IACUC, approval code: A14031). All animals were acclimatized for five days before dosing in the experimental area. Food and water was provided ad libitum throughout the study period. Animals were marked and housed (three per cage, n = 36 per group) in polypropylene cages and maintained in controlled environmental conditions with 12 h light and dark cycles. The temperature and humidity of the room was maintained between 22 ± 3 °C and 30% to 50%, respectively, and approximately 10–12 fresh air change cycles per hour.
To confirm the presence of GE glucuronide conjugates, plasma (100 μL) was treated with βgd (20 μL, 500 units) and incubated at 37 °C for 1 h. Each sample was analyzed twice with and without β-gd treatment. Samples without gde treatment were diluted with 20 μL of buffer. Total (conjugated + free) and free ginger phenolics data were reported following bioanalysis.
All in vitro and in vivo samples were processed by protein precipitation method. An aliquot (100 μL) of the sample was spiked with 200 μL of acetonitrile containing dihydrocapsaicin as internal standard (IS) and vortex mixed for 3 min. The tubes were centrifuged at 12,000 rpm for 10 min and an aliquot of supernatant was transferred into autosampler vials for analysis. The stock solutions of 6G, 8G, 10G, and 6S were prepared in ACN/water (70:30) at 1 mg/mL. A calibration curve (CC) range of 2–2000 ng/mL was employed for the quantification of analytes and IS concentration was 150 ng/mL for each analysis. The CC consisted of blank, blank with IS and seven non-zero calibration standards. The calibration standards were within ±15% of the nominal concentration and lower limit of quantification was within ±20% of nominal. All samples were analyzed using liquid chromatography tandem mass spectrometry (LC-MS/MS) method (Agilent 6410 series, Santa Clara, CA, USA). A positive ionization mode with multiple reaction monitoring (MRM, m/z Q1/Q3) of 6G (m/z 277.1/177.1, retention time (RT) 2.0 min), 8G (m/z 305.1/177.1, RT 4.0 min), 10G (m/z 333.1/177.1, RT 7.7 min), 6S (m/z 277.1/137.1, RT 5.1 min), and IS (m/z 308.2/137.1, RT 3.4 min) was employed. The ion spray voltage was set at 3500 V, ionization temperature was set to 300 °C and drying gas flow rate was 10 L/min. Data acquisition and quantitation were performed using Mass Hunter software (Agilent Technologies, Wilmington, DE, USA). Separation was achieved using HP1100 series LC (Agilent Technologies) with an Agilent Zorbax reversed-phase (SB-C18, 2.1 × 50 mm, 5.0 μm) column. A gradient method was employed to separate the individual GE phenolics using mobile phase A (0.1% formic acid in water) and mobile phase B (Acetonitrile). The gradient elution method with 50% B at 0 min, 90% B at 5 min, held for 2.1 min, back to 50% B at 7.1 min with a flow rate of 0.2 mL/min. An injection volume of 2 μL was used for analysis. […]

[3] = male, C57BL6J, mouse, plasma, po, 250 mg/kg, mouse, 250 mg/kg GE + 50 mg/kg KTZ oral, +KTZ −βgd

SMILES: CCCCCCCC(O)CC(=O)CCc1ccc(O)c(OC)c1 (centres unmarked) [8G, 8-gingerol]
- remaining at 0.5 h, 10 µM ([1]; both sexes, pooled liver microsomes, pH 7.4, substrate 10 µM, n = 2, read-out: % Remaining at 30 min): 1%
- Intrinsic Clearance ([1]; human liver microsomes, substrate 10 µM, 45 mg protein/g liver): 8.5 mL/min/g Liver
- AUClast Ratio ([2]; +KTZ +βgd, reference GE group co-administered with KTZ untreated with βgd): 23
- AUClast Ratio ([2]; +KTZ +βgd, reference GE group untreated with βgd): 1330
- AUClast Ratio ([2]; +KTZ −βgd, reference GE group untreated with βgd): 59
- Concentration Ratio (Total/Free) of GE Phenolics ([2]; 0 h): 0
- Concentration Ratio (Total/Free) of GE Phenolics ([2]; 0.087 h): 532
- Concentration Ratio (Total/Free) of GE Phenolics ([2]; 0.167 h): 439
- Concentration Ratio (Total/Free) of GE Phenolics ([2]; 0.25 h): 653
- Concentration Ratio (Total/Free) of GE Phenolics ([2]; 0.5 h): 948
- Concentration Ratio (Total/Free) of GE Phenolics ([2]; 1 h): 16
- Concentration Ratio (Total/Free) of GE Phenolics ([2]; 2 h): 44
- Concentration Ratio (Total/Free) of GE Phenolics ([2]; 3 h): 29
- Concentration Ratio (Total/Free) of GE Phenolics ([2]; 4 h): 14
- Concentration Ratio (Total/Free) of GE Phenolics ([2]; 6 h): 23
- Concentration Ratio (Total/Free) of GE Phenolics ([2]; 8 h): 0
- Concentration Ratio (Total/Free) of GE Phenolics ([2]; 12 h): 0
- AUC(0-t) [2, 3]: 59.1 ng·h/mL
- Cmax [2, 3]: 45.7 ng/mL
- Tmax [2, 3]: 30 min
- concentration at 0 h ([2]; male, C57BL6J, 250 mg/kg GE oral, 0 h): 0 ng/mL
- concentration at 0.087 h ([2]; male, C57BL6J, 250 mg/kg GE oral, 0.087 h): 0.58 ± 0.45 ng/mL
- concentration at 0.167 h ([2]; male, C57BL6J, 250 mg/kg GE oral, 0.167 h): 0.2 ± 0.14 ng/mL
- concentration at 0.25 h ([2]; male, C57BL6J, 250 mg/kg GE oral, 0.25 h): 0.11 ± 0.05 ng/mL
- concentration at 0.5 h ([2]; male, C57BL6J, 250 mg/kg GE oral, 0.5 h): 0.23 ± 0.08 ng/mL
- concentration at 1 h ([2]; male, C57BL6J, 250 mg/kg GE oral, 1 h): 0.42 ± 0.42 ng/mL
- concentration at 2 h ([2]; male, C57BL6J, 250 mg/kg GE oral, 2 h): 0.43 ± 0.11 ng/mL
- concentration at 3 h ([2]; male, C57BL6J, 250 mg/kg GE oral, 3 h): 0.81 ± 0.66 ng/mL
- concentration at 4 h ([2]; male, C57BL6J, 250 mg/kg GE oral, 4 h): 0.51 ± 0.33 ng/mL
- concentration at 6 h ([2]; male, C57BL6J, 250 mg/kg GE oral, 6 h): 0.49 ± 0.3 ng/mL
- concentration at 8 h ([2]; male, C57BL6J, 250 mg/kg GE oral, 8 h): 0.57 ± 0.23 ng/mL
- concentration at 12 h ([2]; male, C57BL6J, 250 mg/kg GE oral, 12 h): 0.1 ± 0.05 ng/mL
- concentration at 0 h ([2]; male, C57BL6J, 250 mg/kg GE with 50 mg/kg ketoconazole oral, 0 h): 0 ng/mL
- concentration at 0.087 h ([2]; male, C57BL6J, 250 mg/kg GE with 50 mg/kg ketoconazole oral, 0.087 h): 0.48 ± 0.2 ng/mL
- concentration at 0.167 h ([2]; male, C57BL6J, 250 mg/kg GE with 50 mg/kg ketoconazole oral, 0.167 h): 0.63 ± 0.12 ng/mL
- concentration at 0.25 h ([2]; male, C57BL6J, 250 mg/kg GE with 50 mg/kg ketoconazole oral, 0.25 h): 6.93 ± 9.15 ng/mL
- concentration at 0.5 h ([2]; male, C57BL6J, 250 mg/kg GE with 50 mg/kg ketoconazole oral, 0.5 h): 7560 ng/mL
- concentration at 1 h ([2]; male, C57BL6J, 250 mg/kg GE with 50 mg/kg ketoconazole oral, 1 h): 17.9 ± 19.1 ng/mL
- concentration at 2 h ([2]; male, C57BL6J, 250 mg/kg GE with 50 mg/kg ketoconazole oral, 2 h): 16300 ng/mL
- concentration at 3 h ([2]; male, C57BL6J, 250 mg/kg GE with 50 mg/kg ketoconazole oral, 3 h): 11.7 ± 7.35 ng/mL
- concentration at 4 h ([2]; male, C57BL6J, 250 mg/kg GE with 50 mg/kg ketoconazole oral, 4 h): 2.25 ± 1.56 ng/mL
- concentration at 6 h ([2]; male, C57BL6J, 250 mg/kg GE with 50 mg/kg ketoconazole oral, 6 h): 3.71 ± 2.18 ng/mL
- concentration at 8 h ([2]; male, C57BL6J, 250 mg/kg GE with 50 mg/kg ketoconazole oral, 8 h): 1.17 ± 0.11 ng/mL
- concentration at 12 h ([2]; male, C57BL6J, 250 mg/kg GE with 50 mg/kg ketoconazole oral, 12 h): 0.67 ± 0.17 ng/mL
